The source of these data is patent publication US4482707A, “Aminoglycoside antibiotic saccharocins” (Toyo Jozo Kabushiki Kaisha, priority 1981, dated 1984).

In brackets after ≈: the same amount, converted by molar mass. Where two headings read alike, the source gives them in different places.

The subject of data set [1] is Bacillus subtilis ATCC6633. The experiment in a line: MIC by the agar dilution method. In kind it is cell-based. From the text:
(§1) The minimum inhibitory concentration (MIC) of saccharocin and 3'-oxysaccharocin by the agar dilution method are shown in Table 1.

For data set [2], the system named is Citrobacter freundie GN346. Description: MIC by the agar dilution method. The data set is classed as cell-based.
From the text: as §1
Background: In agar dilution, organisms are placed on agar that contains the substance at set levels.

The subject of data set [3] is Enterobacter aerogenes 055. The experiment in a line: MIC by the agar dilution method. The data set is classed as cell-based. As to conditions: Klebsiella aerogenes.
From the text: as §1

The test system of data set [4] is Enterobacter cloacae GN336. Description: MIC by the agar dilution method. In kind it is cell-based.
From the text: as §1

Data set [5] deals with Escherichia coli NIHJ-JC2. Description: MIC by the agar dilution method. In kind it is cell-based. The settings on record: NIHJJC2.
From the text: as §1

Data set [6] has as its system Escherichia coli W3630RGN14. Description: MIC by the agar dilution method. In kind it is cell-based.
From the text: as §1

The test system of another data set is Escherichia coli W3630. Description: MIC by the agar dilution method. The data set is classed as cell-based.
From the text: as §1

The test system of data set [7] is Klebsiella pneumoniae ATCC 10031. Description: MIC by the agar dilution method. The data set is classed as cell-based. The settings on record: ATCC10031.
From the text: as §1

A further data set relates to Proteus morganii 0239. The experiment in a line: MIC by the agar dilution method. The data set is classed as cell-based. The settings on record: Morganella morganii.
From the text: as §1

The subject of the next data set is Proteus rettgeri ACR. Description: MIC by the agar dilution method. In kind it is cell-based. As to conditions: Providencia rettgeri.
From the text: as §1

Data set [8] concerns Pseudomonas aeruginosa 1946. The experiment in a line: MIC by the agar dilution method. In kind it is cell-based.
From the text: as §1

In data set [9] the test system is Pseudomonas aeruginosa 2512. The experiment in a line: MIC by the agar dilution method. In kind it is cell-based.
From the text: as §1

The test system of data set [10] is Pseudomonas aeruginosa ML4561 RP4. The experiment in a line: MIC by the agar dilution method. As to conditions: ML4561RP4. The data set is classed as cell-based.
From the text: as §1

Data set [11] concerns Pseudomonas aeruginosa ML4561 Rm3164-1. Description: MIC by the agar dilution method. The data set is classed as cell-based. As to conditions: ML4561RM31641.
From the text: as §1

Data set [12] concerns Pseudomonas aeruginosa ML4561 Rm3166. The experiment in a line: MIC by the agar dilution method. The data set is classed as cell-based. The settings on record: ML4561RM3166.
From the text: as §1

Data set [13] concerns Pseudomonas aeruginosa ML4561. The experiment in a line: MIC by the agar dilution method. In kind it is cell-based.
From the text: as §1

For a further data set, the system named is Pseudomonas aeruginosa. The experiment in a line: MIC by the agar dilution method. In kind it is cell-based. As to conditions: Pseudomonas aeruginosa (no strain code).
From the text: as §1

Data set [14] deals with Pseudomonas martfiriae 1850. Description: MIC by the agar dilution method. The data set is classed as cell-based.
From the text: as §1

A further data set relates to Pseudomonas putida 1842. Description: MIC by the agar dilution method. The data set is classed as cell-based.
From the text: as §1

The subject of data set [15] is Salmonella enteritidis gaertner. The experiment in a line: MIC by the agar dilution method. The data set is classed as cell-based. The settings on record: Salmonella enterica.
From the text: as §1

For another data set, the system named is Serratia marcescens. Description: MIC by the agar dilution method. The data set is classed as cell-based.
From the text: as §1

In the next data set the test system is Shigella sonnei E33. Description: MIC by the agar dilution method. The data set is classed as cell-based.
From the text: as §1

Data set [16] deals with Staphylococcus aureus 0119. The experiment in a line: MIC by the agar dilution method. The data set is classed as cell-based.
From the text: as §1

For data set [17], the system named is Staphylococcus aureus ATCC 6538P. Description: MIC by the agar dilution method. The data set is classed as cell-based. As to conditions: ATCC6538P.
From the text: as §1

For data set [18], the system named is Staphylococcus aureus MS27. Description: MIC by the agar dilution method. The data set is classed as cell-based.
From the text: as §1

Data set [19] relates to Staphylococcus epidermidis ap-al-1. Description: MIC by the agar dilution method. The data set is classed as cell-based. As to conditions: APAL1.
From the text: as §1

Data set [20] deals with Streptococcus pyogenes N.Y.5. Description: MIC by the agar dilution method. In kind it is cell-based.
From the text: as §1

The nature of the next data set: Solubility. In kind it is physicochemical.
In data set [21] the test system is Saccharopolyspora sp. AC 3440. The experiment in a line: Resistance on antibiotics of the producing strain. The data set is classed as cell-based.
Where [22] appears, read: acetone, benzene, ethyl acetate.
Where [23] appears, read: resistance of producing strain AC 3440, 37° C., 14 days.
Setting [24] is: 336 h, resistance of producing strain AC 3440, 37° C., 14 days, read-out: MIC.

A word on the MIC: it is the smallest concentration in the dilution series that meets the test's criterion for growth inhibition. With `CNC1C(OC2OC(CO)C(O)C(O)C2O)OC2CC(N)C(OC3C(N)CC(N)C(O)C3O)OC2C1O` (stereo not drawn) [Saccharocin], the MIC worked out at 0.8 µg/mL (≈ 1.48 µM) in data set [1]; 6.3 µg/mL (≈ 11.7 µM) in data set [2]; 6.3 µg/mL (≈ 11.7 µM) in [3]; 6.3 µg/mL (≈ 11.7 µM) in data set [4]; 6.3 µg/mL (≈ 11.7 µM) in data set [5]; 3.1 µg/mL (≈ 5.73 µM) in [6]. The minimal inhibitory concentration (MIC) in the data set on Escherichia coli W3630 is 1.6 µg/mL (≈ 2.96 µM); in data set [7], 3.1 µg/mL (≈ 5.73 µM); against Proteus morganii 0239 it was 6.3 µg/mL (≈ 11.7 µM); against Proteus rettgeri ACR it was 3.1 µg/mL (≈ 5.73 µM); in data set [8], more than 100 µg/mL; in [9], 50 µg/mL (≈ 92.5 µM). The MIC was 12.5 µg/mL (≈ 23.1 µM) in data set [10]; 25 µg/mL (≈ 46.2 µM) in data set [11]; 12.5 µg/mL (≈ 23.1 µM) in data set [12]; 25 µg/mL (≈ 46.2 µM) in [13]; 25 µg/mL (≈ 46.2 µM) in the data set with Pseudomonas aeruginosa; more than 100 µg/mL in data set [14]. The MIC turned out to be 25 µg/mL (≈ 46.2 µM) against Pseudomonas putida 1842; 6.3 µg/mL (≈ 11.7 µM) in [15]; 6.3 µg/mL (≈ 11.7 µM) in the data set with Serratia marcescens; 6.3 µg/mL (≈ 11.7 µM) with Shigella sonnei E33; 6.3 µg/mL (≈ 11.7 µM) in [16]; 12.5 µg/mL (≈ 23.1 µM) in [17]. Moreover, the MIC turned out to be 12.5 µg/mL (≈ 23.1 µM) in data set [18], 6.3 µg/mL (≈ 11.7 µM) in [19] and 25 µg/mL (≈ 46.2 µM) in [20]. In addition, the Solubility result in “Solubility” (setting [22]) is on record as “insoluble”; in “Solubility” (water), “soluble”.
Molecule Neomycin yielded an MIC in [21] (setting [23]) of 100 µg/mL.
`CCCC(=O)OC1C(C)OC(OC2C(C)OC(OC3C(CC=O)CC(C)C(O)C=CC=CCC(C)OC(=O)CC(O)C3OC)C(O)C2N(C)C)CC1(C)O` (stereo not drawn) [Leucomycin A5]: the MIC in [21] (setting [24]) was more than 100 µg/mL.
On the same count and under the same terms, the same measure for `[H]/N=C(/N)N[C@H]1[C@H](O)[C@@H](O)[C@H](O[C@@H]2O[C@@H](C)[C@](O)(C=O)[C@H]2O[C@@H]2O[C@@H](CO)[C@H](O)[C@@H](O)[C@@H]2NC)[C@@H](N/C(N)=N\[H])[C@@H]1O` [Streptomycin]: 25 µg/mL (≈ 43 µM).
In [21] (setting [23]), Gentamicin had a minimum inhibitory concentration (MIC) of more than 100 µg/mL.
In turn, `CO[C@H]1/C=C/O[C@@]2(C)Oc3c(C)c(O)c4c(O)c(c(/C=N/N5CCN(C)CC5)c(O)c4c3C2=O)NC(=O)/C(C)=C\C=C\[C@H](C)[C@H](O)[C@@H](C)[C@@H](O)[C@@H](C)[C@H](OC(C)=O)[C@@H]1C` [Rifampicin] displayed an MIC in data set [21] (336 h) of less than 12.5 µg/mL.
Same read-out and setting: next, `NC[C@H]1O[C@H](O[C@H]2[C@H](O)[C@@H](O[C@H]3O[C@H](CO)[C@@H](O)[C@H](N)[C@H]3O)[C@H](N)C[C@@H]2N)[C@H](O)[C@@H](O)[C@@H]1O` [Kanamycin]: more than 100 µg/mL.
Consider `NC[C@@H]1O[C@H](O[C@H]2[C@@H](O)[C@H](O[C@@H]3[C@@H](O)[C@H](N)C[C@H](N)[C@H]3O[C@H]3O[C@H](CO)[C@@H](O)[C@H](O)[C@H]3N)O[C@@H]2CO)[C@H](N)[C@@H](O)[C@@H]1O` [Paromomycin], for which, in [21] (setting [24]), the minimum inhibitory concentration (MIC) turned out to be 50 µg/mL (≈ 81.2 µM).
In the case of `CNC1C(OC2OC(CO)C(O)C(O)C2O)OC2C(O)C(N)C(OC3C(N)CC(N)C(O)C3O)OC2C1O` (stereo not drawn) [3'-oxysaccharocin], the MIC was 3.1 µg/mL (≈ 5.57 µM) in data set [1]; 12.5 µg/mL (≈ 22.5 µM) in data set [2]; 12.5 µg/mL (≈ 22.5 µM) in [3]; 12.6 µg/mL (≈ 22.6 µM) in data set [4]; 12.5 µg/mL (≈ 22.5 µM) in [5]; 12.5 µg/mL (≈ 22.5 µM) in [6]. Also, the MIC in the data set with Escherichia coli W3630 was 3.1 µg/mL (≈ 5.57 µM); in data set [7], 12.5 µg/mL (≈ 22.5 µM); with Proteus morganii 0239, 12.5 µg/mL (≈ 22.5 µM); with Proteus rettgeri ACR, 12.5 µg/mL (≈ 22.5 µM); in data set [8] it was more than 50 µg/mL; in data set [9] it was 50 µg/mL (≈ 89.8 µM). Besides, the MIC in data set [10] was 50 µg/mL (≈ 89.8 µM); in data set [11] it was 50 µg/mL (≈ 89.8 µM); in data set [12] it was 25 µg/mL (≈ 44.9 µM); in data set [13] it was 50 µg/mL (≈ 89.8 µM); in the data set with Pseudomonas aeruginosa, 50 µg/mL (≈ 89.8 µM); in [14], more than 50 µg/mL. In addition, the MIC stood at 50 µg/mL (≈ 89.8 µM) in the data set with Pseudomonas putida 1842; 12.5 µg/mL (≈ 22.5 µM) in data set [15]; 12.5 µg/mL (≈ 22.5 µM) in the data set with Serratia marcescens; 25 µg/mL (≈ 44.9 µM) with Shigella sonnei E33; 12.5 µg/mL (≈ 22.5 µM) in [16]; 25 µg/mL (≈ 44.9 µM) in data set [17]. Moreover, the MIC was determined as 25 µg/mL (≈ 44.9 µM) in [18], 12.5 µg/mL (≈ 22.5 µM) in data set [19] and 50 µg/mL (≈ 89.8 µM) in data set [20]. Besides, the Solubility result in the data set “Solubility” (setting [22]) was “insoluble”; in “Solubility” (water), “soluble”.
Take `NC[C@H]1O[C@H](O[C@H]2[C@H](O)[C@@H](O[C@H]3O[C@H](CO)[C@@H](O)[C@H](N)[C@H]3O)[C@H](N)C[C@@H]2N)[C@H](N)C[C@@H]1O` [Tobramycin]: the MIC in data set [21] (setting [24]) is more than 100 µg/mL.
